From patent US7981867B2, “Use of des-aspartate-angiotensin I” (priority 2005, dated 2011)
Several values for one entry are separate records, joined by “and”; a condition that tells them apart may be missing. Identical values can stand only once. Like-named read-outs stand apart in the source and are kept apart here.

Experiments:
[1] = system: Influenza A/Aichi/2/68 virus; assay type: in vivo, BALB/c mice; settings: for Percentage Weight Change of Individual Mouse: i.p. 60 nmole/kg for 7 days from weight loss 15% or greater, mice 1-7 = c8-c14
diabetic KKAy mice = experiment: Oral glucose tolerance test in diabetic KKAy mice, intraperitoneal treatment; assay type: in vivo; set-up: Serum glucose level: unit not given here; settings: for Serum glucose level: oral glucose tolerance test
Description: (§1) The diabteic KKAy mice were divided into four groups consisting of 6 animals per group. Animals in the control group were intraperitoneally administered 0.1 mL saline. Animals in the second, third, and fourth groups were similarly administered with 100, 200, 400 nmole/kg des-aspartate-angiotensin I, respectively. Treatment with saline and des-aspartate-angiotensin I was carried out daily for 4 weeks. Following this, animals were fasted overnight for 16 hours and oral glucose tolerance test was performed as follows: blood was withdrawn from the orbital sinus for blood glucose determination (time of withdrawal was designated as 0 time), animals were then orally administered glucose (2 g/kg), and blood was withdrawn at 30, 60 and 120 min for blood glucose determination.
as §1, with “diabetic” for “diabteic”, “respectively in 0.1 ml of PBS.” for “respectively.”, “determination. The blood was allowed to clot and blood glucose was measured as serum glucose using a commercial glucose kit from Thermo Electron Corporation, Australia.” for “determination.”

diabetic GK rats = experiment: Oral glucose tolerance test in diabetic GK rats, oral treatment; assay type: in vivo; settings: 400 or 600 nmole/kg oral daily; for hypoglycaemic action (30 min oral glucose tolerance test): 6 weeks of treatment
Description: The experiment was similarly carried as for KKAy mice. Control animals were administered (by gavage) 0.2 mL of water and groups 1 and 2 animals were similarly administered 400 and 600 nmole/kg des-aspartate-angiotensin I in 0.2 mL water, respectively, for a period 8 weeks. Oral glucose tolerance test (determined at 30 min) was carried out after 4 and 6 weeks of treatment. […] Data obtained after 8 week of treatment are given in another figure, FIG. 4.
Diabetic GK rats were divided into three groups, consisting of six animals in each group. Animals in groups 1 and 2 were administered, by gavage, one of the following: 400 or 600 nmole/kg of des-aspartate-angiotensin I in a volume of 0.2 mL water daily for up to 8 weeks. Control animals in group 3 were similarly administered 0.2 mL water. […] Animals were treated for a further 2 weeks and a full oral glucose tolerance test was performed thereafter.

GLUT4 = experiment: Insulin-induced translocation of GLUT4 to plasma membrane in skeletal muscle of diabetic GK rats; assay type: in vivo; settings: oral treatment for 9 weeks; insulin 0.5 U/kg i.p., 30 minutes; Western blot
Source text: Upper panel: Representative Western blot of plasma membrane GLUT4 in skeletal muscle of des-aspartate-angiotensin I treated and non treated diabetic GK rats. Lower panel: Relative (to the non insulin stimulated samples) levels of plasma membrane GLUT4 in skeletal muscle of des-aspartate-angiotensin I treated and control diabetic GK rats.
The diabetic GK rats described in EXAMPLE 9 were similarly treated for another week. At 9 weeks of treatment, animals were fasted overnight and half the animals in each group were intraperitoneally administered with PBS and the other half with insulin (0.5 U/kg). After 30 minutes, the animals were sacrificed by cervical dislocation. Hind limb skeletal muscles were rapidly excised and frozen in liquid nitrogen. Muscle samples were stored at −80° C. until used. The hindlimb muscles were subsequently thawed over an ice pack and plasma membranes were prepared as described by Dombrowaski et al. Thirty μg of protein from the 25% interface of the discontinued sucrose gradient was subjected to SDS-PAGE, transferred to PVDF sheets and incubated with anti-GLUT4 polyclonal primary antibody (1:800), washed and followed by incubation with anti-goat secondary antibody (1:10,000). The bands were detected at 49 kDa. […]

serum insulin = experiment: Serum insulin level of diabetic GK rats (ELISA); assay type: in vivo; settings: 600 nmole/kg oral, 8 weeks, serum at 30 min of the oral glucose tolerance test, vs control
Description: Serum from 8 weeks treated animals (as described in EXAMPLE 9) were assayed for insulin concentration by the “Ultra Senstive Rat Insulin ELISA kit” (Crystal Chem. Inc., IL, USA). The values were from serum taken at 30 min of the oral glucose tolerance test.
The diabetic GK rats described in EXAMPLE 9 were similarly treated for another week. At 9 weeks of treatment, animals were fasted overnight and half the animals in each group were intraperitoneally administered with PBS and the other half with insulin (0.5 U/kg). After 30 minutes, the animals were sacrificed by cervical dislocation. Hind limb skeletal muscles were rapidly excised and frozen in liquid nitrogen. Muscle samples were stored at −80° C. until used. The hindlimb muscles were subsequently thawed over an ice pack and plasma membranes were prepared as described by Dombrowaski et al. Thirty μg of protein from the 25% interface of the discontinued sucrose gradient was subjected to SDS-PAGE, transferred to PVDF sheets and incubated with anti-GLUT4 polyclonal primary antibody (1:800), washed and followed by incubation with anti-goat secondary antibody (1:10,000). The bands were detected at 49 kDa. […] As insulin resistance is the hallmark of diabetes, it is concluded that the des-aspartate-angiotensin I exerts marked hypoglycaemic action in diabetic GK rats by overcoming insulin resistance in these animals.

Substance: des-aspartate-angiotensin I (RVYIHPFHL; Angiotensin-1; UniProt P01019 26-34, looked up, fragment) [endogenous angiotensin peptide derived from angiotensin I by a specific aminopeptidase; purchased from Bachem]
- Percentage Weight Change of Individual Mouse ([1]; post infection day 2): 96.3% and 97.1% and 96.6% and 97.3% and 95.8% and 99.3% and 99.8%
- Percentage Weight Change of Individual Mouse ([1]; post infection day 3): 90.3% and 94.6% and 88.6% and 94.7% and 93.9% and 99.4% and 99.0%
- Percentage Weight Change of Individual Mouse ([1]; post infection day 4): 85.7% and 86.2% and 83.3% and 92.1% and 90.8% and 97.5% and 96.6%
- Percentage Weight Change of Individual Mouse ([1]; post infection day 5): 82.8% and 85.7% and 81.0% and 90.1% and 89.0% and 90.3% and 91.7%
- Percentage Weight Change of Individual Mouse ([1]; post infection day 6): 80.8% and 82.7% and 78.2% and 85.2% and 88.8% and 87.5% and 87.4%
- Percentage Weight Change of Individual Mouse ([1]; post infection day 7): 80.7% and 76.8% and 73.9% and 82.8% and 84.4% and 85.0% and 83.8%
- Percentage Weight Change of Individual Mouse ([1]; post infection day 8): 79.7% and 72.9% and 71.2% and 83.2% and 82.4% and 86.2% and 80.4%
- Percentage Weight Change of Individual Mouse ([1]; post infection day 9): 81.4% and 69.9% and 71.8% and 80.5% and 78.6% and 90.3% and 78.8%
- Percentage Weight Change of Individual Mouse ([1]; post infection day 10): 80.5% and 69.0% and 73.2% and 82.3% and 77.7% and 93.0% and 77.5%
- Percentage Weight Change of Individual Mouse ([1]; post infection day 11): 82.1% and 67.7% and 75.8% and 88.9% and 74.5% and 99.3% and 77.1%
- Percentage Weight Change of Individual Mouse ([1]; post infection day 12): 80.0% and 64.9% and 80.1% and 88.9% and 74.5% and 101.2% and 78.9%
- Percentage Weight Change of Individual Mouse ([1]; post infection day 13): 76.6% and 63.0% and 82.8% and 97.4% and 72.3% and 80.8%
- Percentage Weight Change of Individual Mouse ([1]; post infection day 14): 75.2% and 61.3% and 86.3% and 102.8% and 74.0% and 82.6%
- Percentage Weight Change of Individual Mouse ([1]; post infection day 15): 83.0% and 58.9% and 90.1% and 76.7% and 84.3%
- Percentage Weight Change of Individual Mouse ([1]; post infection day 16): 90.3% and 58.9% and 94.6% and 78.6% and 89.4%
- Percentage Weight Change of Individual Mouse ([1]; post infection day 17): 93.5%
- animals survived and regained their original weight ([1]; i.p. 60 nmole/kg for 7 days, 7 treated animals): Six
- influenza A virus in the lung homogenate of the surviving mice ([1]; i.p. 60 nmole/kg for 7 days, assayed in MDCK cells): No influenza A virus was detected
- Fate of individual mouse (death) ([1]; i.p. 60 nmole/kg for 7 days, treated mouse 4, post infection day 18): died
- Serum glucose level (diabetic KKAy mice; 100 nmole/kg i.p. daily for 4 weeks, 0 min): 7.9 ± 0.9
- Serum glucose level (diabetic KKAy mice; 100 nmole/kg i.p. daily for 4 weeks, 30 min): 21.2 ± 1.6
- Serum glucose level (diabetic KKAy mice; 100 nmole/kg i.p. daily for 4 weeks, 60 min): 13.4 ± 1.3
- Serum glucose level (diabetic KKAy mice; 100 nmole/kg i.p. daily for 4 weeks, 120 min): 9.9 ± 0.5
- Serum glucose level (diabetic KKAy mice; 200 nmole/kg i.p. daily for 4 weeks, 0 min): 6.9 ± 0.9
- Serum glucose level (diabetic KKAy mice; 200 nmole/kg i.p. daily for 4 weeks, 30 min): 16.0 ± 1.4
- Serum glucose level (diabetic KKAy mice; 200 nmole/kg i.p. daily for 4 weeks, 60 min): 14.5 ± 0.9
- Serum glucose level (diabetic KKAy mice; 200 nmole/kg i.p. daily for 4 weeks, 120 min): 8.7 ± 1.2
- Serum glucose level (diabetic KKAy mice; 400 nmole/kg i.p. daily for 4 weeks, 0 min): 6.5 ± 0.6
- Serum glucose level (diabetic KKAy mice; 400 nmole/kg i.p. daily for 4 weeks, 30 min): 15.4 ± 1.6
- Serum glucose level (diabetic KKAy mice; 400 nmole/kg i.p. daily for 4 weeks, 60 min): 13.0 ± 1.1
- Serum glucose level (diabetic KKAy mice; 400 nmole/kg i.p. daily for 4 weeks, 120 min): 8.8 ± 0.6
- blood glucose level at 30 and 60 min of the oral glucose tolerance test (diabetic KKAy mice; doses of 200 and 400 nmole/kg/day i.p. for 4 weeks, vs control): significantly lowered
- hypoglycaemic action (30 min oral glucose tolerance test) (diabetic GK rats): significant hypoglycaemic action was detected
- hypoglycaemic action (30 min oral glucose tolerance test) (diabetic GK rats; listed as DAA-1): exerts hypoglycaemic action
- hypoglycaemic action (full oral glucose tolerance test) (diabetic GK rats; 8 weeks of treatment): significantly expressed
- insulin-induced translocation of GLUT4 to the plasma membrane in skeletal muscle (GLUT4): significantly enhances
- serum level of insulin (serum insulin): not significantly affected
- serum level of insulin (serum insulin; listed as des-aspartate-angiotesnin I): no significant difference
